Experimental data as given in article PMC11968560 (Proteins, 2024).

Target: T1, PfGrp94 (Plasmodium falciparum glucose-regulated protein 94 kDa, endoplasmin) (Plasmodium falciparum, UniProt Q8I0V4)
T1 sequence (Q8I0V4 22-821): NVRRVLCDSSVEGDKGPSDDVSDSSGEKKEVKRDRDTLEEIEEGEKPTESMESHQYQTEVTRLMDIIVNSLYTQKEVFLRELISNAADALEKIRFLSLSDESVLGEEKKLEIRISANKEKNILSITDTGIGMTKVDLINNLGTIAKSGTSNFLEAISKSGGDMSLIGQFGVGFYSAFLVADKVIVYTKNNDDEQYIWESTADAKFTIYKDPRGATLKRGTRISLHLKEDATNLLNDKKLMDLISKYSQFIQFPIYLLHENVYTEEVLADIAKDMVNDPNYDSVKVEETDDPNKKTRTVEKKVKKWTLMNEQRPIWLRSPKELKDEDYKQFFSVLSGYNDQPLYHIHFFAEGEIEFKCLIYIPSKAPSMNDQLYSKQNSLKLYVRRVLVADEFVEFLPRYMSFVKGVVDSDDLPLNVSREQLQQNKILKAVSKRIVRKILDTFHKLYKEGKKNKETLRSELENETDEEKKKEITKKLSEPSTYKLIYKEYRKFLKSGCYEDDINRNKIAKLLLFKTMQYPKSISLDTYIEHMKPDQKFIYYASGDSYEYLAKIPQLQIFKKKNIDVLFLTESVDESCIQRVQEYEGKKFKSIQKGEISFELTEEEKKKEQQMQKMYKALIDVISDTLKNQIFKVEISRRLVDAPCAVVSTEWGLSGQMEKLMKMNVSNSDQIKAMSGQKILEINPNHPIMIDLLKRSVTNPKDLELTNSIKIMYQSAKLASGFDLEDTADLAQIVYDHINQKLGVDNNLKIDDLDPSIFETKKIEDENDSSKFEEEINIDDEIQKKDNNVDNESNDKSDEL
Assay: malachite green ATPase inhibition
Assay type: biochemical

## CCNC(=O)[C@H]1O[C@@H](n2cnc3c(N)ncnc32)[C@H](O)[C@@H]1O [NECA]
  EC50: 3.53 ± 1.5 µM
